The source of these data is PMC7730961, “Discovery of Novel Dual Extracellular Regulated Protein Kinases (ERK) and Phosphoinositide 3-Kinase (PI3K) Inhibitors as a Promising Strategy for Cancer Therapy” (Molecules, 2020).

In general, inhibition refers to the drop in the measured response relative to a control, in per cent. The term IC50 denotes the concentration that inhibits the measured activity by half.

Counter-ions that a name gives are not always drawn.

The target in data set [1] is PI3Kα (Homo sapiens, UniProt P42336). Put plainly: Enzymatic inhibition assay (ADP-Glo Plus luminescence kinase assay), PI3Kα. Format: biochemical. The note with it: for inhibition at 1 µM: 1 μM (1000 nM) compound. How it is done:
The 50 µL reaction mixture contains 40 mM Tris-HCl, pH 7.4, 10 µM ATP, 10 mM MgCl2, 0.1 mg/mL BSA, 1 mM DTT, 0.2 ug/mL ERK 2, ERK 1, PI3Kα, PI3Kβ, PI3Kγ or PI3Kδ and 100 uM lipid substrate. All compounds were diluted in 10% DMSO and tested in 10-dose with 3-fold serial dilution starting at a concentration of 1 μM. Of the dilution, 5 µL was added to a 50 µL reaction so that the final concentration of DMSO is 1% in all of reactions. After all of the reaction mixtures were conducted at 30 °C for 40 min, the assay was performed using ADP-Glo Plus luminescence kinase assay kit. The luminescence signal and the intensity of the luminescence signal value were detected using a multi-well spectrophotometer (the MD-SpectraMax M5 multifunctional microplate reader). It was directly proportional to the […] enzyme activity. The experimental results were converted into active percentages, a dose-response curve is drawn, and the IC50 value of inhibition was calculated using […] PRISM 5 nonlinear regression.
In general terms: In ADP-Glo the light output rises with the ADP produced.

Data set [2] addresses ERK 2 (Homo sapiens, UniProt P28482). Description: Enzymatic inhibition assay (ADP-Glo Plus luminescence kinase assay), ERK2. The data set is classed as biochemical. The note with it: for inhibition at 1 µM: 1 μM (1000 nM) compound. How it is done:
All compounds were diluted in 10% DMSO and tested in 10-dose with 3-fold serial dilution starting at a concentration of 1 μM. Of the dilution, 5 µL was added to a 50 µL reaction so that the final concentration of DMSO is 1% in all of reactions. After all of the reaction mixtures were conducted at 30 °C for 40 min, the assay was performed using ADP-Glo Plus luminescence kinase assay kit. The luminescence signal and the intensity of the luminescence signal value were detected using a multi-well spectrophotometer (the MD-SpectraMax M5 multifunctional microplate reader). It was directly proportional to the inhibition of enzyme activity.

Data set [3] relates to HCT116. Put plainly: Anti-proliferation assay (MTT, 72 h), HCT116. Format: cell-based. The note with it: Homo sapiens, HCT-116, HCT116 cells. As to the method: (§1) Human cancer cell lines HCT116 and HEC1B were cultured in media with 10% FBS (GIBCO, Invitrogen Corporation, NY, USA) at 37 °C in a 5% (v/v) CO2 humidified incubator. The logarithmic growth phase cells were seeded in a 96-well plate with a density of 1 × 10^5 cells/mL, cultured at 37 °C, 5% CO2. Until the cells were 90% confluent, the medium containing compound was added to incubate for 72 h, and then the cell viability was tested by MTT analysis. Taking the drug concentration as the abscissa and the percentage of proliferation inhibitory activity corresponding to each concentration as the ordinate, using Graphpad Prism 5 to do nonlinear regression, the IC50 value of each compound was calculated.

Data set [4] has as its system HEC1B. Description: Anti-proliferation assay (MTT, 72 h), HEC1B. The note with it: Homo sapiens, HEC-1B, HEC1B cells. The data set is classed as cell-based. As to the method:
as §1

Data set [5] relates to HCT-116 xenograft. Put plainly: In vivo antitumor activity, HCT-116 xenograft in nude mice. Details: species or system Balb/c-nude mice. The note with it: intraperitoneal once daily, 21 days, 32d 5 mg/kg, BVD-523 5 mg/kg, GDC-0980 1 mg/kg; for TGI (tumor growth inhibitory rate): nude mice, combination 2.5 mg/kg + 0.5 mg/kg. How it is done: Male five-week-old Balb/c-nude mice (18–20 g) were injected subcutaneously with HCT-116 cells (5 × 10^7/mL cells suspended in Matrigel Matrix). […] All mice were administered by intraperitoneal q.d. The tumor volumes were measured using electronic digital calipers every 3 days and were calculated as 1/2 length × width × width.

Sequence of ERK 2 (P28482 whole entry): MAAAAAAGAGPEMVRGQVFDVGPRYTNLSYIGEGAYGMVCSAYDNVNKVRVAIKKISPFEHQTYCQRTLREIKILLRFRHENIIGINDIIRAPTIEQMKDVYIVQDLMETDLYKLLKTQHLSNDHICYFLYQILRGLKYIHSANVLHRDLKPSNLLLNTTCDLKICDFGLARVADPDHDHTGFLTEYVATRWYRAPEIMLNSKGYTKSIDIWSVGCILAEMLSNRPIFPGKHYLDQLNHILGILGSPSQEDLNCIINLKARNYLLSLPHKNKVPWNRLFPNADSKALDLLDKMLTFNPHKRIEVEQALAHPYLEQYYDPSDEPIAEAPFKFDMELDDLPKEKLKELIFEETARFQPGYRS
Sequence of PI3Kα (P42336 whole entry): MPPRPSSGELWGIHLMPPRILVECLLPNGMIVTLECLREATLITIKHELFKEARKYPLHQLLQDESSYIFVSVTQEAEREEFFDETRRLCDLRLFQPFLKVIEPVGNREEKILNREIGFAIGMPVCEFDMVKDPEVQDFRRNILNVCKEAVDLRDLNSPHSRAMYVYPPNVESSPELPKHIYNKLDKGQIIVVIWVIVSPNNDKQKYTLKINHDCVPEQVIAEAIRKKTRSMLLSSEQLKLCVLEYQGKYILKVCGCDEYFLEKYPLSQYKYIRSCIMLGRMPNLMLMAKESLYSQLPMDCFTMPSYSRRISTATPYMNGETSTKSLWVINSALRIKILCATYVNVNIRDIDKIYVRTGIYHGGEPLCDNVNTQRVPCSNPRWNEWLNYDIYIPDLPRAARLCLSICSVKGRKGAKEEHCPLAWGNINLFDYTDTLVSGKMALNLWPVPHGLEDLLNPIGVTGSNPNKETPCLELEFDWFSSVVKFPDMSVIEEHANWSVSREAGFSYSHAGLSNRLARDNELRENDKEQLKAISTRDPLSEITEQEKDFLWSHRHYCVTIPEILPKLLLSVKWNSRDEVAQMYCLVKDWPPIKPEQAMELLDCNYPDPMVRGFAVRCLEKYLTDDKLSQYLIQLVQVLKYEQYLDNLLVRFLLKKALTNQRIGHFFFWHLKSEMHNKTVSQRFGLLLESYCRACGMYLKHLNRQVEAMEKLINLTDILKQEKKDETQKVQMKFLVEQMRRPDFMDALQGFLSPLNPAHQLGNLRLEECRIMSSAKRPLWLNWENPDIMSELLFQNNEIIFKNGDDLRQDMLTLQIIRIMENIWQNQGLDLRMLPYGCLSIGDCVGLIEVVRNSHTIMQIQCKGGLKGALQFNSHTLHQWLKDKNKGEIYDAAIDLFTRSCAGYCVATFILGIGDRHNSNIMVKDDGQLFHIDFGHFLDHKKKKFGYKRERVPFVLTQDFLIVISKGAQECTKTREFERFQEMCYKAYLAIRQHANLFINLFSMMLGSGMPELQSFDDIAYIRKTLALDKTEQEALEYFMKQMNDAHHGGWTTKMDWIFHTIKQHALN
Sequence of PI3Kα (P27986 whole entry partner): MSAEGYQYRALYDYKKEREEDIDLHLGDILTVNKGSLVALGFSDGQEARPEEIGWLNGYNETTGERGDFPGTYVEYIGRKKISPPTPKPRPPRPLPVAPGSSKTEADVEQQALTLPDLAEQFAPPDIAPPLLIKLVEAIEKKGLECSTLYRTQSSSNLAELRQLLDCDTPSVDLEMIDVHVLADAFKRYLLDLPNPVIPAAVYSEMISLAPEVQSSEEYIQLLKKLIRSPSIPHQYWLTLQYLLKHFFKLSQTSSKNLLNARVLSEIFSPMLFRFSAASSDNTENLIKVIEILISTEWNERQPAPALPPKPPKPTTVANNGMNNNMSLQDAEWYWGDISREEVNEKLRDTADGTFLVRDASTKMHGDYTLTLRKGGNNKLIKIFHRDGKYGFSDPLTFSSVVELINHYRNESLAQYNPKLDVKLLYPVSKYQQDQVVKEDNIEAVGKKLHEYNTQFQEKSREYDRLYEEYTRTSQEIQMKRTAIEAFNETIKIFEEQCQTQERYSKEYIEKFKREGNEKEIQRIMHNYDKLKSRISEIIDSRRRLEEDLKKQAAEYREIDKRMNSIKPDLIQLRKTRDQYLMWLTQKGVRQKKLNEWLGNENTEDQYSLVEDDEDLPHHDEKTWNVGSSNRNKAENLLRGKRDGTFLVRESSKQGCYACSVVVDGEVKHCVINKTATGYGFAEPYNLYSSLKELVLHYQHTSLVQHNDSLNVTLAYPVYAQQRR

For the compound `Cn1cc(-c2cnc3cnc(NC(=O)NCCN4CCOCC4)nc3c2)cn1` [32j, 1-(7-(1-Methyl-1H-pyrazol-4-yl)pyrido[3,2-d]pyrimidin-2-yl)-3-(2-morpholinoethyl)urea], the inhibition at 0.1 µM in data set [1] (100 nM compound) was 15.1%; in data set [2] (100 nM compound), 6.2%.

Consider `CCNC(=O)Nc1ncc2ncc(-c3cnn(C)c3)cc2n1` [32i, 1-Ethyl-3-(7-(1-methyl-1H-pyrazol-4-yl)pyrido[3,2-d]pyrimidin-2-yl)urea], for which the inhibition at 0.1 µM worked out at 33.4% in data set [1] (100 nM compound) and 22.1% in data set [2] (100 nM compound).

As to `Cc1cc(-c2n[nH]c3nc(NC(=O)NCc4ccccc4)ncc23)ccn1` [16a, 1-Benzyl-3-(3-(2-methylpyridin-4-yl)-1H-pyrazolo[3,4-d]pyrimidin-6-yl)urea], the inhibition at 1 µM worked out at 8.7% in data set [1] and 98.3% in data set [2].

With `Cn1cc(-c2cnc3cnc(NC(=O)Nc4ccccc4)nc3c2)cn1` [32h, 1-(7-(1-Methyl-1H-pyrazol-4-yl)pyrido[3,2-d]pyrimidin-2-yl)-3-phenylurea], the inhibition at 0.1 µM in data set [1] (100 nM compound) amounted to 24.9%; in data set [2] (100 nM compound), 17.2%.

For `Cc1cc(-c2n[nH]c3nc(NC(=O)NC4CCCC4)ncc23)ccn1` [16b, 1-Cyclopentyl-3-(3-(2-methylpyridin-4-yl)-1H-pyrazolo[3,4-d]pyrimidin-6-yl)urea], the values for the inhibition at 1 µM in data set [1] and in data set [2] were 27.4% and 84.8%, respectively.

Take `O=C(Nc1ncc2ncc(-c3cccc(OC(F)(F)F)c3)cc2n1)NC1CCCC1` [32c, 1-Cyclopentyl-3-(7-(3-(trifluoromethoxy)phenyl)pyrido[3,2-d]pyrimidin-2-yl)urea]: the inhibition at 0.1 µM in data set [1] (100 nM compound) is -11.3%; in data set [2] (100 nM compound), 1.6%.

For `Cn1cc(-c2cnc3cnc(NC(=O)NCc4ccccc4)nc3c2)cn1` [32g, 1-Benzyl-3-(7-(1-methyl-1H-pyrazol-4-yl)pyrido[3,2-d]pyrimidin-2-yl)urea], the IC50 is 10 µM in data set [3], 0.824 µM in data set [1], 0.083 µM in data set [2] and 2.27 µM in data set [4]. The values for the inhibition at 0.1 µM in data set [1] (100 nM compound) and in data set [2] (100 nM compound) were 32.4% and 55.2%, respectively.

As to `CC(C)Nc1cc(-c2c[nH]c(C(=O)N[C@H](CO)c3cccc(Cl)c3)c2)c(Cl)cn1` [BVD-523, reference compound], the IC50 in data set [3] came to 0.321 µM. In data set [5], the “body weight of nude mice during treatment” value is on record as “losing” and the “TGI (tumor growth inhibitory rate)” value stood at 50%. In addition, the inhibition at 0.1 µM in data set [2] (100 nM compound) is 97.7%. In data set [2], the inhibition at 1 µM was found to be 97.7%. For the same compound, in data set [4], the IC50 was determined as 18 µM.

In the case of `O=C(Nc1ncc2ncc(-c3ccnc(F)c3)cc2n1)NC1CCCC1` [32e, 1-Cyclopentyl-3-(7-(2-fluoropyridin-4-yl)pyrido[3,2-d]pyrimidin-2-yl)urea], the inhibition at 0.1 µM is 7% in data set [1] (100 nM compound) and 35.4% in data set [2] (100 nM compound).

For `Cn1cc(-c2n[nH]c3nc(NC(=O)NCc4ccccc4)ncc23)cn1` [16c, 1-Benzyl-3-(3-(1-methyl-1H-pyrazol-4-yl)-1H-pyrazolo[3,4-d]pyrimidin-6-yl)urea], the results for the inhibition at 1 µM in data set [1] and in data set [2] were 1.8% and 97.2%, respectively.

Regarding `O=C(Nc1ncc2ncc(C3=CCNCC3)cc2n1)NC1CCCC1` [32f, 1-Cyclopentyl-3-(7-(1,2,3,6-tetrahydropyridin-4-yl)pyrido[3,2-d]pyrimidin-2-yl)urea hydrochloride], the inhibition at 0.1 µM is -8.8% in data set [1] (100 nM compound) and 0.4% in data set [2] (100 nM compound).

Turning to `Cn1cc(-c2n[nH]c3nc(NC(=O)NC4CCCC4)ncc23)cn1` [16d, 1-Cyclopentyl-3-(3-(1-methyl-1H-pyrazol-4-yl)-1H-pyrazolo[3,4-d]pyrimidin-6-yl)urea], the inhibition at 1 µM in data set [1] turned out to be 4%; in data set [2], 79.5%.

As to `Cn1cc(-c2cnc3nc(NC(=O)NC4CCCC4)ncc3c2)cn1` [compound 24, 1-Cyclopentyl-3-(6-(1-methyl-1H-pyrazol-4-yl)pyrido[2,3-d]pyrimidin-2-yl)urea], the inhibition at 1 µM is 15.1% in data set [1] and 1.8% in data set [2].

`Cc1c(CN2CCN(C(=O)[C@H](C)O)CC2)sc2c(N3CCOCC3)nc(-c3cnc(N)nc3)nc12` [GDC-0980, reference compound] returned an IC50 in data set [3] of 1.06 µM. Besides, in data set [5], the “body weight of nude mice during treatment” value is given as “losing” and the “TGI (tumor growth inhibitory rate)” value is 46%. In addition, in data set [4], the IC50 was 0.23 µM.

Consider `Cc1cc(-c2cnc3cnc(NC(=O)NC4CCCC4)nc3c2)ccn1` [32b, 1-Cyclopentyl-3-(7-(2-methylpyridin-4-yl)pyrido[3,2-d]pyrimidin-2-yl)urea], for which the inhibition at 0.1 µM amounted to 10.5% in data set [1] (100 nM compound) and 53.7% in data set [2] (100 nM compound).

As for “1-Cyclopentyl-3-(7-(2-methylpyridin-4-yl)pyrido[3,2-d]pyrimidin-2-yl)urea [32k]”, the “PI3Kα Inhibition% (100 nM)” value in data set [1] (100 nM compound) amounted to 15.3%. Moreover, the “ERK2 Inhibition% (100 nM)” value in data set [2] (100 nM compound) came out at 66.5%.
